One assay has as its target human recombinant BACE2 (Homo sapiens (Human), UniProt Q9Y5Z0). Kind of assay: In vitro enzymatic BACE2 FRET assay. The assay is classed as biochemical. Particulars: read-out: IC50 IP (μM) BACE2 enzyme. Summed up:
(§1)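 FRET cleavage assay using Ni-NTA-purified recombinant protease and 50 nM quenched peptide substrate, 1 h. Stopped by neutralising with Tris; fluorescence at 488/590 nm.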

The target in a further assay is human recombinant BACE1 (Homo sapiens (Human), UniProt P56817). The experiment in a line: In vitro enzymatic BACE1 FRET assay. Conditions: read-out: IC50 IP (μM) BACE1 enzyme. Format: biochemical. Summed up: as §1
Another assay has as its target Recombinant Cat D (Homo sapiens (Human), UniProt P07339). The experiment in a line: In vitro enzymatic Cathepsin D (Cat D) FRET assay. Format: biochemical. Conditions: read-out: IC50 IP (μM) CatD. Summed up: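 Human Cat D expressed in CHO cells was incubated for one hour in 0.05 M citrate pH 3.5, 5 mM CHAPS, 10% DMSO final, with 20 nM quenched FRET peptide substrate. Reactions were stopped with Tris buffer raising pH to neutrality. Cleavage was read as fluorescence at excitation 500 nm, emission 580 nm.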

For assay [1], the system named is Aβ40 in conditioned medium of cells stably expressing Amyloid Precursor Protein (APP). Kind of assay: In vitro BACE-1 cell-based assay (Aβ40 sandwich ELISA). Conditions: read-out: IC50 IP (μM) BACE1 cell. Summed up:
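APP-stable cells, pre-cultured 24 h at 37° C in DMEM/10% FBS, were treated 24 h with compound in a 10-point series starting at 100 μM or 10 μM (0.1% DMSO final). Secreted Aβ40 in conditioned medium was measured by pAb40/biotin-6E10 sandwich ELISA with Europium time-resolved fluorescence; IC50 from percent inhibition versus concentration.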
On the technique in general: ELISA stands for enzyme-linked immunosorbent assay.

17 molecules from patent publication US20160046618A1, “Cyclopropyl Fused Thiazin-2-Amine Compounds as Beta-Secretase Inhibitors and Methods of Use” (AMGEN INC., priority 2014, published 2016) can be followed below.

As a reminder, the IC50 is the concentration that gives 50% inhibition.

A value given as a limit tells only on which side of the number the result lay.

Sequence of Recombinant Cat D (P07339 65-412): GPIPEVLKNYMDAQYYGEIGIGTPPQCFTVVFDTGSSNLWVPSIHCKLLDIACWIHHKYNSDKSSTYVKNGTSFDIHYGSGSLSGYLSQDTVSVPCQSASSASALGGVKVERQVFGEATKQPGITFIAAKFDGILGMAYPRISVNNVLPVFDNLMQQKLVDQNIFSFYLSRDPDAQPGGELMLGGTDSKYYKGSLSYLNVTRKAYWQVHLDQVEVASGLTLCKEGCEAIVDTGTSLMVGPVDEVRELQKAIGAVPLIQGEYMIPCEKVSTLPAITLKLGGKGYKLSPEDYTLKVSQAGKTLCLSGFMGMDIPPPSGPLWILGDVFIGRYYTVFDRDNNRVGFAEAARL
Sequence of human recombinant BACE1 (P56817 46-501): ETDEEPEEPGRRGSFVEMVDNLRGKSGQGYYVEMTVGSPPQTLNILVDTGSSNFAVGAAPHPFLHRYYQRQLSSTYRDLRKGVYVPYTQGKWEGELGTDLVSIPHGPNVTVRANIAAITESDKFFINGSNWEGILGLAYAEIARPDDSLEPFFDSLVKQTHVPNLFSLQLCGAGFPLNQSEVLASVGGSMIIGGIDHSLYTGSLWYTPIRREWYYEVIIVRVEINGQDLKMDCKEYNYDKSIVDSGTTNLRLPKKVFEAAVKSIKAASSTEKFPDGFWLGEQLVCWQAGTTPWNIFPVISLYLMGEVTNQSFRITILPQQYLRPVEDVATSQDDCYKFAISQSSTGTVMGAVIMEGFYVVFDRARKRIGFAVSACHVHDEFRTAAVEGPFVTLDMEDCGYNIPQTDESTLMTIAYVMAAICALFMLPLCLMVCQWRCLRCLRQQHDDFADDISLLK
Sequence of human recombinant BACE2 (Q9Y5Z0 63-518): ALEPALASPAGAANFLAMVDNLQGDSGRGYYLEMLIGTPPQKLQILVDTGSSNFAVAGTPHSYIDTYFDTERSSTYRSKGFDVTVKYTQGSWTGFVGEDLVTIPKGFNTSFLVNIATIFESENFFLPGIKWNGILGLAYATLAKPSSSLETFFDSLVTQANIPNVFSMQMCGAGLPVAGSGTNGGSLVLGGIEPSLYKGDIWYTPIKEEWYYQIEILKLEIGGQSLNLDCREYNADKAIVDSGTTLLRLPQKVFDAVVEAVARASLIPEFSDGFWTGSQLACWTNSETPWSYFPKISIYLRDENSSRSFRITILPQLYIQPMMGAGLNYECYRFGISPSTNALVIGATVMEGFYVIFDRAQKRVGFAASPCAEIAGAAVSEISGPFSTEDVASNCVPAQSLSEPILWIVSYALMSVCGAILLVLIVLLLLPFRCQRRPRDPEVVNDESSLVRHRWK

Consider `C[C@]1(c2cc(NC(=O)c3ccc(Cl)cn3)cc(F)c2F)N=C(N)S[C@@]2(S(C)(=O)=O)C[C@H]21` [Example 742, N-(3-((1R,5S,6S)-3-amino-5-methyl-1-(methylsulfonyl)-2-thia-4-azabicyclo[4.1.0]hept-3-en-5-yl)-4,5-difluorophenyl)-5-chloro-2-pyridinecarboxamide], for which the concentration for half-maximal inhibition (IC50) on human recombinant BACE2 was less than 0.00203 µM; on human recombinant BACE1, 0.000719 µM; on Recombinant Cat D it was 846 µM; in assay [1] it was 0.0149 µM.

For the molecule `C#CCOc1ccc(C(=O)Nc2cc(F)c(F)c([C@@]3(C)N=C(N)S[C@@]4(S(C)(=O)=O)C[C@H]43)c2)nc1` [Example 743, N-(3-((1R,5S,6S)-3-amino-5-methyl-1-(methylsulfonyl)-2-thia-4-azabicyclo[4.1.0]hept-3-en-5-yl)-4,5-difluorophenyl)-5-(2-propyn-1-yloxy)-2-pyridinecarboxamide], the IC50 on human recombinant BACE2 was 0.00543 µM; on human recombinant BACE1, 0.000395 µM; on Recombinant Cat D, greater than 133 µM; in assay [1] it was 0.00971 µM.

As to `C#CCOc1cnc(C(=O)Nc2cc(F)c(F)c([C@@]3(C)N=C(N)S[C@@]4(S(C)(=O)=O)C[C@H]43)c2)cn1` [Example 744, N-(3-((1R,5S,6S)-3-amino-5-methyl-1-(methylsulfonyl)-2-thia-4-azabicyclo[4.1.0]hept-3-en-5-yl)-4,5-difluorophenyl)-5-(2-propyn-1-yloxy)-2-pyrazinecarboxamide], the half-maximal inhibitory concentration (IC50) on human recombinant BACE2 was found to be 0.0183 µM; at human recombinant BACE1 it was 0.00029 µM; at Recombinant Cat D it was 46.5 µM; in assay [1] it was 0.000872 µM.

`C[C@]1(c2cc(NC(=O)c3ccc(OCc4ncco4)cn3)cc(F)c2F)N=C(N)S[C@@]2(S(C)(=O)=O)C[C@H]21` [Example 745, N-(3-((1R,5S,6S)-3-amino-5-methyl-1-(methylsulfonyl)-2-thia-4-azabicyclo[4.1.0]hept-3-en-5-yl)-4,5-difluorophenyl)-5-(1,3-oxazol-2-ylmethoxy)-2-pyridinecarboxamide]: the IC50 was found to be 0.0257 µM on human recombinant BACE2, 0.000898 µM at human recombinant BACE1, 972 µM at Recombinant Cat D and 0.0175 µM in assay [1].

On to `C[C@]1(c2cc(NC(=O)c3cnc(OCc4ncco4)cn3)cc(F)c2F)N=C(N)S[C@@]2(S(C)(=O)=O)C[C@H]21` [Example 746, N-(3-((1R,5S,6S)-3-amino-5-methyl-1-(methylsulfonyl)-2-thia-4-azabicyclo[4.1.0]hept-3-en-5-yl)-4,5-difluorophenyl)-5-(1,3-oxazol-2-ylmethoxy)-2-pyrazinecarboxamide], for which the half-inhibitory concentration (IC50) on human recombinant BACE2 came out at 0.00522 µM; at human recombinant BACE1, 0.000628 µM; on Recombinant Cat D, 880 µM; in assay [1], 0.00356 µM.

Regarding `C[C@]1(c2cc(Nc3nccc4nc(OCc5ncco5)cnc34)cc(F)c2F)N=C(N)S[C@@]2(S(C)(=O)=O)C[C@H]21` [Example 747, (1R,5S,6S)-5-(2,3-difluoro-5-((2-(oxazol-2-ylmethoxy)pyrido[3,4-b]pyrazin-5-yl)amino)phenyl)-5-methyl-1-(methylsulfonyl)-2-thia-4-azabicyclo[4.1.0]hept-3-en-3-amine], the IC50 at human recombinant BACE2 stood at 0.0115 µM; on human recombinant BACE1, 0.00242 µM; on Recombinant Cat D it was 1190 µM; in assay [1], 0.0123 µM.

On to `C[C@]1(c2cc(NC(=O)c3ccc(Cl)cn3)cc(F)c2F)N=C(N)S[C@@H]2[C@H]1C2(F)F` [Example 748, N-(3-((1R,5S,6R)-3-amino-7,7-difluoro-5-methyl-2-thia-4-azabicyclo[4.1.0]hept-3-en-5-yl)-4,5-difluorophenyl)-5-chloro-2-pyridinecarboxamide], for which the half-inhibitory concentration (IC50) came to 0.00284 µM at human recombinant BACE2, 0.00807 µM on human recombinant BACE1, 129 µM at Recombinant Cat D and 0.597 µM in assay [1].

Consider `C#CCOc1cnc(C(=O)Nc2ccc(F)c([C@@]3(C)N=C(N)S[C@]4(CO)[C@H]3C4(F)F)c2)cn1` [Example 749, N-(3-((1S,5S,6R)-3-amino-7,7-difluoro-1-(hydroxymethyl)-5-methyl-2-thia-4-azabicyclo[4.1.0]hept-3-en-5-yl)-4-fluorophenyl)-5-(2-propyn-1-yloxy)-2-pyrazinecarboxamide], for which the half-maximal inhibitory concentration (IC50) on human recombinant BACE2 worked out at 0.00979 µM; on human recombinant BACE1, 0.000319 µM; at Recombinant Cat D it was 101 µM; in assay [1] it was 0.00121 µM.

As to `C[C@]1(c2cc(Nc3ncnc4cc(OCc5ncco5)cnc34)ccc2F)N=C(N)S[C@]2(CO)[C@H]1C2(F)F` [Example 750, ((1S,5S,6R)-3-amino-7,7-difluoro-5-(2-fluoro-5-((7-(1,3-oxazol-2-ylmethoxy)pyrido[3,2-d]pyrimidin-4-yl)amino)phenyl)-5-methyl-2-thia-4-azabicyclo[4.1.0]hept-3-en-1-yl)methanol], the concentration for half-maximal inhibition (IC50) on human recombinant BACE2 amounted to 0.0404 µM; at human recombinant BACE1 it was 0.0019 µM; on Recombinant Cat D, 246 µM; in assay [1], 0.00301 µM.

Take `C[C@]1(c2cc(NC(=O)c3ccc(OCC(F)(F)C(F)F)cn3)ccc2F)N=C(N)S[C@]2(CO)[C@H]1C2(F)F` [Example 751, N-(3-((1S,5S,6R)-3-amino-7,7-difluoro-1-(hydroxymethyl)-5-methyl-2-thia-4-azabicyclo[4.1.0]hept-3-en-5-yl)-4-fluorophenyl)-5-(2,2,3,3-tetrafluoropropoxy)-2-pyridinecarboxamide]: the IC50 at human recombinant BACE2 is 0.255 µM; on human recombinant BACE1, 0.00203 µM; on Recombinant Cat D, 292 µM; in assay [1], 0.0338 µM.

With `NC1=N[C@](CF)(c2cc(NC(=O)c3ccc(Cl)cn3)ccc2F)[C@@H]2C3CSC[C@]32S1` (stereo partly drawn) [Example 753, N-(3-((4S,4aS,7aR)-2-amino-4-(fluoromethyl)-4a,4b,5,7-tetrahydro-4H-thieno[3′,4′:2,3]cyclopropa[1,2-e][1,3]thiazin-4-yl)-4-fluorophenyl)-5-chloropicolinamide], the IC50 at human recombinant BACE2 is 0.00304 µM; at human recombinant BACE1 it was 0.00339 µM; on Recombinant Cat D, 420 µM; in assay [1], 0.0964 µM.

`NC1=N[C@](CF)(c2cc(Nc3nncc4cc(Cl)cnc34)ccc2F)[C@@H]2C[C@@H]2S1` [Example 754, (1S,5S,6S)-5-(5-((3-chloropyrido[2,3-d]pyridazin-8-yl)amino)-2-fluorophenyl)-5-(fluoromethyl)-2-thia-4-azabicyclo[4.1.0]hept-3-en-3-amine]: the half-maximal inhibitory concentration (IC50) on human recombinant BACE2 was 0.00588 µM; at human recombinant BACE1, 0.0454 µM; on Recombinant Cat D, 844 µM; in assay [1], 0.0781 µM.

Consider `CCOC(=O)/C=C/[C@]12C[C@H]1[C@@](CF)(c1cc(NC(=O)c3ccc(Cl)cn3)ccc1F)N=C(N)S2` [Example 755, (E)-ethyl 3-((1R,5S,6S)-3-amino-5-(5-(5-chloropicolinamido)-2-fluorophenyl)-5-(fluoromethyl)-2-thia-4-azabicyclo[4.1.0]hept-3-en-1-yl)acrylate], for which the IC50 at human recombinant BACE2 was less than 0.00203 µM; on human recombinant BACE1, 0.00147 µM; on Recombinant Cat D, 250 µM; in assay [1], 0.00838 µM.

Regarding `NC1=N[C@](CF)(c2cc(NC(=O)c3ccc(Cl)cn3)ccc2F)[C@@H]2C[C@]2(/C=C/CO)S1` [Example 756, N-(3-((1R,5S,6S)-3-amino-5-(fluoromethyl)-1-((E)-3-hydroxyprop-1-en-1-yl)-2-thia-4-azabicyclo[4.1.0]hept-3-en-5-yl)-4-fluorophenyl)-5-chloropicolinamide], the IC50 was less than 0.00203 µM at human recombinant BACE2, 0.00373 µM on human recombinant BACE1, greater than 400 µM at Recombinant Cat D and 0.00659 µM in assay [1].

As for `NC1=N[C@](CF)(c2cc(NC(=O)c3ccc(Cl)cn3)ccc2F)[C@@H]2C[C@]2(/C=C/C(=O)O)S1` [Example 757, (E)-3-((1R,5S,6S)-3-amino-5-(5-(5-chloropicolinamido)-2-fluorophenyl)-5-(fluoromethyl)-2-thia-4-azabicyclo[4.1.0]hept-3-en-1-yl)acrylic acid], the IC50 on human recombinant BACE2 is less than 0.00203 µM; on human recombinant BACE1, 0.000176 µM; on Recombinant Cat D it was 458 µM; in assay [1], 0.0498 µM.

Turning to `NC1=N[C@](CF)(c2cc(NC(=O)c3ccc(Cl)cn3)ccc2F)[C@@H]2C[C@]2(CCCO)S1` [Example 758, N-(3-((1S,5S,6S)-3-amino-5-(fluoromethyl)-1-(3-hydroxypropyl)-2-thia-4-azabicyclo[4.1.0]hept-3-en-5-yl)-4-fluorophenyl)-5-chloropicolinamide], the IC50 is less than 0.00203 µM on human recombinant BACE2, 0.00156 µM at human recombinant BACE1, 2070 µM on Recombinant Cat D and 0.00195 µM in assay [1].

As for `NC(=O)/C=C/[C@]12C[C@H]1[C@@](CF)(c1cc(NC(=O)c3ccc(Cl)cn3)ccc1F)N=C(N)S2` [Example 759, N-(3-((1R,5S,6S)-3-amino-1-((E)-3-amino-3-oxoprop-1-en-1-yl)-5-(fluoromethyl)-2-thia-4-azabicyclo[4.1.0]hept-3-en-5-yl)-4-fluorophenyl)-5-chloropicolinamide], the IC50 at human recombinant BACE2 was less than 0.00203 µM; on human recombinant BACE1 it was 0.00101 µM; at Recombinant Cat D, greater than 400 µM; in assay [1], 0.00265 µM.
